Data published in patent US20070105789A1, “Combinatorial chemotherapy treatment using Na+/K+ ATPase inhibitors” (priority 2004, published 2007).
Like-named read-outs stand apart in the source and are kept apart here.

Experiments:
[1] = system: panel of 10 cancer cell lines; assay: cytotoxicity against a panel of 10 cancer cell lines; format: cell-based; details: read-out: median IC50
[2] = molecular target: Na+/K+-ATPase α peptide isoforms; details: read-out: Kd of ouabain for the four α peptide isoforms; almost all mammalian species; cited from earlier work
[3] = system: A549 human non-small-cell-lung carcinoma; assay: A549 human non-small-cell-lung carcinoma xenograft in nude mice; details: for % TGI: A549, Day 38; for Final Tumor weight Day 38 (Mean): A549, tumor weight in mg; for Final Tumor weight Day 38 (Mean) / % Weight Change at Day 38: BNC-1 20 mg/ml s.c. pump, Carboplatin 100 mg/kg ip; for % Weight Change at Day 38: A549 xenograft mice; for signs of tumor at the end of the experiment: A549 xenograft, 8 animals per group
Description: (§1) Female nude mice (nu/nu) between 5 and 6 weeks of age weighing approximately 20 g were implanted subcutaneously (s.c.) by trocar with fragments of human tumors harvested from s.c. grown tumors in nude mice hosts. […] Each group contains 8-10 mice, each of which was ear tagged and followed throughout the experiment.
(§2) The administration of drugs or controls began the day the animals were pair-matched (Day 1). […] Mice were weighed and tumor measurements were obtained using calipers twice weekly, starting Day 1. These tumor measurements were converted to mg tumor weight by standard formula, (W^2×L)/2. The experiment is terminated when the control group tumor size reached an average of about 1 gram. Upon termination, the mice were weighed, sacrificed and their tumors excised. The tumors were weighed and the mean tumor weight per group was calculated.
Carboplatin (qldxl) was injected at 100 mg/kg (Carb).

[4] = human pharmacokinetics (literature); details: species not stated
[5] = system: Panc-1 human pancreatic xenograft; assay: Panc-1 human pancreatic tumor xenograft in nude mice; format: in vivo; details: for Final Tumor weight Day 25 (Mean): BNC-1 20 mg/ml s.c. osmotic pump, tumor weight in mg
Description: as §1, §2
(§3) The control animals received pumps containing vehicle (50% DMSO in DMEM). The mice treated with standard chemotherapy agent received intra-peritoneal injections of Gemcitabine at 40 mg/kg every 3 days for 4 treatments (q3d×4). Each data point represent average tumor weight (n=8) and error bars indicate SEM.
as §3

[6] = system: Caki-1 human renal cancer xenograft; format: in vivo, nude mice; details: for % TGI: Caki-1, Day 22; for % TGI / Final Tumor weight Day 22 (Mean): BNC-1 20 mg/ml s.c. pump, Cytoxan 300 or 100 ip; for Final Tumor weight Day 22 (Mean): tumor weight in mg
Description: as §1, §2

[7] = system: A549(ROS) Sentinel Line; assay: ROS levels by FACS in A549(ROS) cells; format: cell-based, human; details: normoxia, 4 hrs
Protocol: Thirty minutes prior to the termination of incubation period, 2,7-dichlorofluorescin diacetate (CFH-DA, […]) was added to the cells and incubated for the last 30 min at 37° C. The ROS levels were determined by FACS analysis.

[8] = cited from earlier work
[9] = system: VEGF; assay: VEGF secretion in tumor cells; format: cell-based; details: FIG. 8
[10] = system: Na+/K+-ATPase; details: Erdmann E 1978; cited from earlier work
[11] = system: several different cancer cell lines; assay: proliferation of cancer cell lines (ouabain IC50); format: cell-based; details: read-out: IC50 across several different cancer cell lines
[12] = system: cats; details: cited from earlier work
[13] = system: A549 cell line; assay: anti-proliferation MTS assay in A549 cell line; format: cell-based; details: Homo sapiens
Protocol: (§4) Anti-prolerafitive IC50 values were determined by MTS assay using an A549 cell line. Na^+/K^+-ATPase inhibition IC50 values were obtained using enzyme preparation from dog kidney (Sigma).

[14] = molecular target: T1, Na+/K+-ATPase (Canis lupus familiaris, UniProt P50997); assay: Na+/K+-ATPase inhibition; format: biochemical, dog
T1 construct: enzyme preparation from dog kidney (Sigma); purchased Sigma; host or cells: dog kidney tissue
Protocol: as §4

[15] = system: HIF-1α; assay: Western blot using anti-HIF-1α antibody (Example XVI); format: cell-based; details: 1 μM
[16] = system: A549 Sentinel Line; assay: Sentinel Line reporter assay (beta-gal, FACS); format: cell-based, human; details: agent alone, 40 hrs, FACS
Protocol: The expression level of beta-galactosidase gene in sentinel lines was determined by using a fluorescent substrate fluorescein di-B-D-Galactopyranside (FDG, Marker Gene Tech, #M0250) introduced into cells by hypotonic shock. Cleavage by beta-galactosidase results in the production of free fluorescein, which is unable to cross the plasma membrane and is trapped inside the beta-gal positive cells. Briefly, the cells to be analyzed are trypsinized, and resuspended in PBS containing 2 mM FDG (diluted from a 10 mM stock prepared in 8:1:1 mixture of water: ethanol: DMSO). The cells were then shocked for 4 minutes at 37° C. and transferred to FACS tubes containing cold 1×PBS on ice. Samples were kept on ice for 30 minutes and analyzed by FACS in FLI channel.
Sentinel Line cells with beta-galactosidase reporter gene were plated at 1×10^5 cells/10 cm dish. […] After 40 hrs, the cells were trypsinized and the expression level of reporter gene was determined by FDG loading.
The reporter activity was measured by FACS analysis.

[17] = system: rats; details: adult; cited from earlier work
[18] = Panc-1, Gemcitabine 40 mg/kg q3d×4

Structure (SMILES): C[C@@H]1O[C@@H](O[C@H]2C[C@@H](O)[C@]3(CO)[C@H]4[C@H](O)C[C@]5(C)[C@@H](C6=CC(=O)OC6)CC[C@]5(O)[C@@H]4CC[C@]3(O)C2)[C@H](O)[C@H](O)[C@H]1O [BNC-1, ouabain]
- IC50 [1]: 78 nM
- Kd [2]: ≤ 1 nM
- % TGI [3]: 100.00%
- Final Tumor weight Day 38 (Mean) [3]: 0.0
- % Weight Change at Day 38 [3]: 21%
- signs of tumor at the end of the experiment [3]: none of the experimental animals showed any signs of tumor
- max. plasma concentration [4]: about 0.03 μg/mL
- % TGI ([5]; Panc-1, Day 25, BNC-1 20 mg/ml s.c. pump, Gemcitabine 40 mg/kg q3d×4): 82.15%
- Final Tumor weight Day 25 (Mean) [5, 18]: 200
- % TGI [6]: 81.45%
- Final Tumor weight Day 22 (Mean) ([6]; Caki-1): 314.9
- toxic serum concentration at day 1 (serum level at MTD) (mice): about 50±21 ng/ml
- therapeutic serum concentration required to achieve >60% TGI (steady state, xenograft nude mouse): about 20±15 ng/ml
- ROS production [7]: induces ROS production
- plasma half-life in human ([8]; according to the literature): about 20 hours
- plasma half-life in human, range ([8]; according to the literature): 5 to 50 h
- secretion of VEGF in tumor cells [9]: directly or indirectly inhibits
- order of Na+/K+-ATPase-inhibition [10]: Ouabain<Digoxin<Proscillaridin
- IC50 [11]: 15 to 600 nM
- intravenous toxicity [12]: 0.133 mg/kg
- toxicity on duodenal administration [12]: 5.3 mg/kg

Structure (SMILES): CC(=O)OC1C=C2CCC3C4=CC[C@H](c5ccc(=O)oc5)[C@@]4(C)CCC3[C@@]2(C)CC1 (some centres unmarked) [BNC-147]
- IC50 [13]: 11500 nM
- IC50 [14]: 65000 nM

Structure (SMILES): C[C@@H]1OC(OC2C=C3CCC4C5=CC[C@H](c6ccc(=O)oc6)[C@@]5(C)CCC4[C@@]3(C)CC2)[C@H](O)[C@H](O)[C@H]1O (some centres unmarked) [BNC-151]
- IC50 [13]: 260 nM
- IC50 [14]: 1380 nM
- HIF-1α expression [15]: Significant inhibition

Structure (SMILES): N.N.O=C([O-])C1(C(=O)[O-])CCC1.[Pt+2] [Carboplatin]
- reporter activity in Sentinel Lines [16]: increases in cell death and reporter activity
- % TGI [3]: 39.50%
- Final Tumor weight Day 38 (Mean) [3]: 509.75
- % Weight Change at Day 38 [3]: 16%
- signs of tumor at the end of the experiment [3]: developed tumors of significant sizes

Structure (SMILES): O=P1(N(CCCl)CCCl)NCCCO1 (centres unmarked) [Cytoxan]
- % TGI [6]: 94.48%
- % TGI ([6]; listed as Cytoxan100): 54.70%
- Final Tumor weight Day 22 (Mean) ([6]; Caki-1): 93.7
- Final Tumor weight Day 22 (Mean) ([6]; Caki-1, listed as Cytoxan100): 769
- TGI ([6]; Caki-1, Cytoxan 100 mg/kg alone, positive control): 92%

Structure (SMILES): C[C@H]1O[C@@H](O[C@H]2[C@@H](O)C[C@H](O[C@H]3[C@@H](O)C[C@H](O[C@H]4CC[C@@]5(C)[C@H](CC[C@@H]6[C@@H]5CC[C@]5(C)[C@@H](C7=CC(=O)OC7)CC[C@]65O)C4)O[C@@H]3C)O[C@@H]2C)C[C@H](O)[C@@H]1O [Digitoxin]
- LD50 p.o. [17]: 0.1 mg/kg

Structure (SMILES): C[C@H]1O[C@@H](O[C@H]2[C@@H](O)C[C@H](O[C@H]3[C@@H](O)C[C@H](O[C@H]4CC[C@@]5(C)[C@H](CC[C@@H]6[C@@H]5C[C@@H](O)[C@]5(C)[C@@H](C7=CC(=O)OC7)CC[C@]65O)C4)O[C@@H]3C)O[C@@H]2C)C[C@H](O)[C@@H]1O [Digoxin]
- IC50 [1]: 37 nM
- Volume-of-Distribution (VD) ([8]; in vivo): 650 L
- order of Na+/K+-ATPase-inhibition [10]: Ouabain<Digoxin<Proscillaridin

Structure (SMILES): Nc1ccn([C@@H]2O[C@H](CO)[C@@H](O)C2(F)F)c(=O)n1 [Gemcitabine, gemcitabine]
- reporter activity in Sentinel Lines [16]: elevated reporter activity
- Final Tumor weight Day 25 (Mean) [5, 18]: 701.3
- TGI ([5]; Panc-1, BNC-4 15 mg/ml s.c. pump, Gemcitabine 40 mg/kg q3d×4): 65%
- % TGI ([5]; mouse, in vivo): 37.40%

Structure (SMILES): COc1cc2ncnc(Nc3ccc(F)c(Cl)c3)c2cc1OCCCN1CCOCC1 [Iressa]
- reporter activity in Sentinel Lines [16]: reduction in reporter activity

Structure (SMILES): O=C1c2c(O)ccc(O)c2C(=O)c2c(NCCNCCO)ccc(NCCNCCO)c21 [mitoxanthrone, mitoxantrone]
- reporter activity in Sentinel Lines [16]: increases in cell death and reporter activity

Structure (SMILES): CC(=O)O[C@H]1C(=O)[C@@]2(C)[C@H]([C@H](OC(=O)c3ccccc3)[C@]3(O)C[C@H](OC(=O)[C@H](O)[C@@H](NC(=O)c4ccccc4)c4ccccc4)C(C)=C1C3(C)C)[C@]1(OC(C)=O)CO[C@@H]1C[C@@H]2O [paclitaxel]
- reporter activity in Sentinel Lines [16]: increases in cell death and reporter activity
